Assay [1] has as its target human CB1 receptors (Homo sapiens (Human), UniProt P21554). The assay can be described thus: cAMP assay, CHO cells expressing human CB1 receptors. Type of assay: cell-based. To be noted: CHO cells expressing human CB1, cAMP; read-out: human CB1 EC50. An outline of the steps: (§1)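 Agonist EC50 values come from cAMP levels measured in intact CHO cells. Compounds act for 30 min at 30 °C in the presence of 1 mM IBMX, and cAMP is then detected by time-resolved energy transfer after lysis.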
(cAMP levels reflect the balance of adenylyl cyclase and phosphodiesterase activity.)

In assay [2] the target is human CB2 receptors (Homo sapiens (Human), UniProt P34972). The assay can be described thus: cAMP assay, CHO cells expressing human CB2 receptors. The following applies: CHO cells expressing human CB2, cAMP; read-out: human CB2 EC50. Type of assay: cell-based. The method in brief: as §1
Sequence of human CB2 receptors (P34972 whole entry): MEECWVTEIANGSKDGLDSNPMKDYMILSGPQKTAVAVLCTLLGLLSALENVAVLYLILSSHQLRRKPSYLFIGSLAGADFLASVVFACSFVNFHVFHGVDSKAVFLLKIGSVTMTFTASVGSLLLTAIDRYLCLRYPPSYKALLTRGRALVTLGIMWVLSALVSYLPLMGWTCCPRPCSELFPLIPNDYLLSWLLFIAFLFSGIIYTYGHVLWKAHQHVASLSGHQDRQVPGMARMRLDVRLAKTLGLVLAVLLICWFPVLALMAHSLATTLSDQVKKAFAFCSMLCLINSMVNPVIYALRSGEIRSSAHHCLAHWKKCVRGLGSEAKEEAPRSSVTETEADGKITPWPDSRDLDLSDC

Molecules are shown by their SMILES.

What is called EC50 is the concentration needed to bring the measured effect to its halfway point.

Sequence of human CB1 receptors (P21554 whole entry): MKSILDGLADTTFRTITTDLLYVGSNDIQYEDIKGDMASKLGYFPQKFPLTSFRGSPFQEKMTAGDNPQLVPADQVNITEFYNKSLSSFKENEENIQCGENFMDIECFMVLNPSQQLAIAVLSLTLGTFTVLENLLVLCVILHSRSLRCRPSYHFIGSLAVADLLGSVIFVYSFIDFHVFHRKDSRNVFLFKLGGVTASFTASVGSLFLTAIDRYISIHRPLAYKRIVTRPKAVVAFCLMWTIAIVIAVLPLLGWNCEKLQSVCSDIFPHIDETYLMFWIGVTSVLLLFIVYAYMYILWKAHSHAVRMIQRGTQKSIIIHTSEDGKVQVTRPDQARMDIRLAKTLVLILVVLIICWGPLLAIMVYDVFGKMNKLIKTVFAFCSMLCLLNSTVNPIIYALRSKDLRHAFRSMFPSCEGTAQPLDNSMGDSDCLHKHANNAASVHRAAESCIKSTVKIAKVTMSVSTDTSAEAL

Consider `CCC(CC)(NC(=O)c1ccc(C2CC2)c(-c2cccc(Cl)c2)n1)C(=O)NC` [Example 71, 6-(3-Chloro-phenyl)-5-cyclopropyl-pyridine-2-carboxylic acid (1-ethyl-1-methylcarbamoyl-propyl)-amide], for which the EC50 in assay [1] was over 10000 nM; in assay [2], 61.2 nM.
For `CC(C)(NC(=O)c1cccc(-c2cccc(Cl)c2)n1)c1ncon1` [Example 72, 6-(3-Chloro-phenyl)-pyridine-2-carboxylic acid (1-methyl-1-[1,2,4]oxadiazol-3-yl-ethyl)-amide], in that order: over 10000 nM and 32.8 nM.
For `CC(C)(NC(=O)c1ccc(C2CC2)c(OCC2CC2)n1)c1ncon1` [Example 73, 5-Cyclopropyl-6-cyclopropylmethoxy-pyridine-2-carboxylic acid (1-methyl-1-[1,2,4]oxadiazol-3-yl-ethyl)-amide], in that order: 1320 nM and 40.7 nM.
For `CCC(CC)(NC(=O)c1ccc(C2CC2)c(OCC2CC2)n1)C(=O)NC` [Example 74, 5-Cyclopropyl-6-cyclopropylmethoxy-pyridine-2-carboxylic acid (1-ethyl-1-methylcarbamoyl-propyl)-amide], in that order: over 10000 nM and 8.9 nM.
Regarding `CC(C)(NC(=O)c1ccc(N2CC(O)C2)c(OCC2CC2)n1)c1nccs1` [Example 75, 6-Cyclopropylmethoxy-5-(3-hydroxy-azetidin-1-yl)-pyridine-2-carboxylic acid (1-methyl-1-thiazol-2-yl-ethyl)-amide], the values for the EC50 in assay [1] and in assay [2] were over 10000 nM and 15.2 nM, respectively.
In the case of `CCC(CC)(NC(=O)c1cccc(-c2ccc(Cl)cc2)n1)C(=O)NC` [Example 76, 6-(4-Chloro-phenyl)-pyridine-2-carboxylic acid (1-ethyl-1-methylcarbamoyl-propyl)-amide], the concentration giving a half-maximal response (EC50) in assay [1] is over 10000 nM; in assay [2], 185 nM.
Turning to `CC(C)(NC(=O)c1ccc(N2CCCS2(=O)=O)c(OCC2CC2)n1)c1nccs1` [Example 77, 6-(Cyclopropylmethoxy)-5-(1,1-dioxido-isothiazolidin-2-yl)-N-[2-(1,3-thiazol-2-yl)propan-2-yl]pyridine-2-carboxamide], the results for the concentration for a half-maximal effect (EC50) in assay [1] and in assay [2] were over 10000 nM and 1400 nM, respectively.
For `CCC(CC)(NC(=O)c1ccc(N2CCC(F)(F)C2)c(OCC2CC2)n1)C(=O)NC` [Example 78, 6-Cyclopropylmethoxy-5-(3,3-difluoro-pyrrolidin-1-yl)-pyridine-2-carboxylic acid (1-ethyl-1-methylcarbamoyl-propyl)-amide], in that order: over 10000 nM and 4.6 nM.
For `O=C(c1ccc(N2CCC(F)(F)C2)c(OCC2CC2)n1)N1CCS(=O)(=O)CC1` [Example 79], in that order: over 10000 nM and 2040 nM.
Take `CNC(=O)C(C)(C)NC(=O)c1ccc(N2CCC(F)(F)C2)c(OCC2CC2)n1` [Example 80, 6-Cyclopropylmethoxy-5-(3,3-difluoro-pyrrolidin-1-yl)-pyridine-2-carboxylic acid (1-methyl-1-methylcarbamoyl-ethyl)-amide]: the EC50 came to 5.8 nM in assay [1] and 134 nM in assay [2].
For `CCC(CC)(NC(=O)c1ccc(OC)c(-c2cccc(Cl)c2)n1)C(=O)NC` [Example 81, 6-(3-Chloro-phenyl)-5-methoxy-pyridine-2-carboxylic acid (1-ethyl-1-methylcarbamoyl-propyl)-amide], in that order: over 10000 nM and 417 nM.
Regarding `COc1ccc(C(=O)NC(C)(C)c2nccs2)nc1-c1cccc(Cl)c1` [Example 82, 6-(3-Chloro-phenyl)-5-methoxy-pyridine-2-carboxylic acid (1-methyl-1-thiazol-2-yl-ethyl)-amide], the 50% effective concentration (EC50) in assay [1] came to 2290 nM; in assay [2] it was 140 nM.
Turning to `CC(C)(NC(=O)c1ccc(Cl)c(OCC2CC2)n1)c1ncon1` [Example 83, 5-Chloro-6-cyclopropylmethoxy-pyridine-2-carboxylic acid (1-methyl-1-[1,2,4]oxadiazol-3-yl-ethyl)-amide], the EC50 was over 10000 nM in assay [1] and 347 nM in assay [2].
For `O=C(NC1CCCCC1O)c1cccc(C2CCCCC2)n1` (centres unmarked) [Example 84, 6-Cyclohexyl-pyridine-2-carboxylic acid (2-hydroxy-cyclohexyl)-amide], in that order: over 10000 nM and 292 nM.
For `CCC(CC)(NC(=O)c1ccc(C2CCOCC2)c(OCC2CC2)n1)C(=O)NC` [Example 85, 6-Cyclopropylmethoxy-5-(tetrahydro-pyran-4-yl)-pyridine-2-carboxylic acid (1-ethyl-1-methylcarbamoyl-propyl)-amide], in that order: over 10000 nM and 186 nM.
For `CCC(CC)(NC(=O)c1ccc(N2CC(F)(F)C2)c(OCC2CC2)n1)C(=O)NC` [Example 86, 6-Cyclopropylmethoxy-5-(3,3-difluoro-azetidin-1-yl)-pyridine-2-carboxylic acid (1-ethyl-1-methylcarbamoyl-propyl)-amide], in that order: over 10000 nM and 33.1 nM.
For the molecule `CNC(=O)C(C)(C)NC(=O)c1ccc(N2CC(F)(F)C2)c(OCC2CC2)n1` [Example 87, 6-Cyclopropylmethoxy-5-(3,3-difluoro-azetidin-1-yl)-pyridine-2-carboxylic acid (1-methyl-1-methylcarbamoyl-ethyl)-amide], the results for the EC50 in assay [1] and in assay [2] were over 10000 nM and 476 nM, respectively.
For `CC(C)(NC(=O)c1ccc(Cl)c(-c2cccc(Cl)c2)n1)c1ncon1` [Example 88, 5-Chloro-6-(3-chloro-phenyl)-pyridine-2-carboxylic acid (1-methyl-1-[1,2,4]oxadiazol-3-yl-ethyl)-amide], in that order: over 10000 nM and 356 nM.
Turning to `COc1ccc(C(=O)NC(C)(C)c2noc(C)n2)nc1-c1cccc(Cl)c1` [Example 89, 6-(3-Chloro-phenyl)-5-methoxy-pyridine-2-carboxylic acid [1-methyl-1-(5-methyl-[1,2,4]oxadiazol-3-yl)-ethyl]-amide], the EC50 was found to be 1360 nM in assay [1] and 119 nM in assay [2].
For `COc1ccc(C(=O)NC(C)(C)c2ncco2)nc1-c1cccc(Cl)c1` [Example 90, 6-(3-Chloro-phenyl)-5-methoxy-pyridine-2-carboxylic acid (1-methyl-1-oxazol-2-yl-ethyl)-amide], in that order: over 10000 nM and 217 nM.
For `CCC(CC)(NC(=O)c1ccc(Cl)c(-c2cccc(Cl)c2)n1)C(=O)NC` [Example 91, 5-Chloro-6-(3-chloro-phenyl)-pyridine-2-carboxylic acid (1-ethyl-1-methylcarbamoyl-propyl)-amide], in that order: over 10000 nM and 632 nM.
For `COC(=O)C1CCCCC1NC(=O)c1cccc(C2CCCCC2)n1` (centres unmarked) [Example 92, 2-[(6-Cyclohexyl-pyridine-2-carbonyl)-amino]-cyclohexanecarboxylic acid methyl ester], in that order: over 10000 nM and 320 nM.
`CC(C)(NC(=O)c1ccc(C2CCOCC2)c(OCC2CC2)n1)c1ncco1` [Example 93, 6-Cyclopropylmethoxy-5-(tetrahydro-pyran-4-yl)-pyridine-2-carboxylic acid (1-methyl-1-oxazol-2-yl-ethyl)-amide]: the figures for the EC50 in assay [1] and in assay [2] were over 10000 nM and 120 nM, respectively.
For `O=C(NN1CCCCC1)c1cccc(C2CCCC2)n1` [Example 94, 6-Cyclopentyl-pyridine-2-carboxylic acid piperidin-1-ylamide], in that order: over 10000 nM and 129 nM.
For `CC(C)(NC(=O)c1ccc(C2CC2)c(-c2cccc(Cl)c2)n1)c1ncco1` [Example 95, 6-(3-Chloro-phenyl)-5-cyclopropyl-pyridine-2-carboxylic acid (1-methyl-1-oxazol-2-yl-ethyl)-amide], in that order: over 10000 nM and 83.9 nM.
For `Cc1nc(C(C)(C)NC(=O)c2ccc(C3CC3)c(-c3cccc(Cl)c3)n2)no1` [Example 96, 6-(3-Chloro-phenyl)-5-cyclopropyl-pyridine-2-carboxylic acid [1-methyl-1-(5-methyl-[1,2,4]oxadiazol-3-yl)-ethyl]-amide], in that order: 1440 nM and 95.8 nM.
Turning to `NC(=O)[C@H](CC1CC1)NC(=O)c1ccc(C2CC2)c(-c2cccc(Cl)c2)n1` [Example 97, 6-(3-Chloro-phenyl)-5-cyclopropyl-pyridine-2-carboxylic acid ((S)-1-carbamoyl-2-cyclopropyl-ethyl)-amide], the concentration giving a half-maximal response (EC50) was over 10000 nM in assay [1] and 508 nM in assay [2].
For `NC(=O)[C@H](CC1CC1)NC(=O)c1ccc(C2CC2)c(OCC2CC2)n1` [Example 98, 5-Cyclopropyl-6-cyclopropylmethoxy-pyridine-2-carboxylic acid ((S)-1-carbamoyl-2-cyclopropyl-ethyl)-amide], in that order: over 10000 nM and 27.6 nM.
Take `O=C(N[C@@H](CC1CC1)c1nccs1)c1ccc(C2CC2)c(OCC2CC2)n1` [Example 99, 5-Cyclopropyl-6-cyclopropylmethoxy-pyridine-2-carboxylic acid ((S)-2-cyclopropyl-1-thiazol-2-yl-ethyl)-amide]: the EC50 in assay [1] is over 10000 nM; in assay [2], 59.7 nM.
For `CC(C)C[C@H](NC(=O)c1ccc(C2CC2)c(OCC2CC2)n1)C(N)=O` [Example 100, 5-Cyclopropyl-6-cyclopropylmethoxy-pyridine-2-carboxylic acid ((S)-1-carbamoyl-3-methyl-butyl)-amide], in that order: 801 nM and 1.2 nM.
For `CC(C)(NC(=O)c1ccc(C2CCOC2)c(-c2cccc(Cl)c2)n1)c1nccs1` (centres unmarked) [Example 101, 6-(3-Chloro-phenyl)-5-(tetrahydro-furan-3-yl)-pyridine-2-carboxylic acid (1-methyl-1-thiazol-2-yl-ethyl)-amide], in that order: over 10000 nM and 102 nM.

The values are drawn from patent publication US9290451B2 (Hoffmann-La Roche Inc., priority 2011, dated 2016).
